{"source": "ChEMBL document CHEMBL3774387", "about": "“Synthesis and anticancer evaluation of spermatinamine analogues” (Bioorg Med Chem Lett, 2016)", "key": {"[1]": {"assay": "Cytotoxicity against human DU145 cells assessed as viable cells after 24 hrs by Solid plate-based spot culture growth inhibition assay", "type": "functional, cell-based", "settings": "DU-145, 24 h"}, "MCF7 [2]": {"system": "MCF7", "assay": "Cytotoxicity against human MCF7 cells assessed as viable cells after 24 hrs by Solid plate-based spot culture growth inhibition assay", "type": "functional, cell-based", "settings": "MCF7, 24 h"}, "[3]": {"assay": "Cytotoxicity against human DU145 cells assessed as growth inhibition at 25 uM after 24 hrs by MTT assay (reference value: 1.2 to 7.8%)", "type": "functional", "settings": "DU-145, 24 h, read-out: GI"}, "MCF7 [4]": {"system": "MCF7", "assay": "Cytotoxicity against human MCF7 cells assessed as growth inhibition at 2.5 uM after 24 hrs by MTT assay (reference value: 2.7 to 9.3%)", "type": "functional", "settings": "MCF7, 24 h, read-out: GI"}, "MCF7 [5]": {"system": "MCF7", "assay": "Cytotoxicity against human MCF7 cells assessed as viable cells after 48 hrs by MTT assay", "type": "functional, cell-based", "settings": "MCF7, 48 h"}, "[6]": {"assay": "Cytotoxicity against human DU145 cells assessed as growth inhibition at 100 uM after 24 hrs by MTT assay (reference value: 1.2 to 7.8%)", "type": "functional", "settings": "DU-145, 24 h, read-out: GI"}, "MCF7 [7]": {"system": "MCF7", "assay": "Cytotoxicity against human MCF7 cells assessed as growth inhibition at 50 uM after 24 hrs by MTT assay (reference value: 2.7 to 9.3%)", "type": "functional", "settings": "MCF7, 24 h, read-out: GI"}, "[8]": {"assay": "Cytotoxicity against human DU145 cells assessed as viable cells after 48 hrs by MTT assay", "type": "functional, cell-based", "settings": "DU-145, 48 h"}, "MCF7 [9]": {"system": "MCF7", "assay": "Cytotoxicity against human MCF7 cells assessed as growth inhibition at 1.25 uM after 24 hrs by MTT assay (reference value: 2.7 to 9.3%)", "type": "functional", "settings": "MCF7, 24 h, read-out: GI"}, "HeLa [10]": {"system": "HeLa", "assay": "Cytotoxicity against human HeLa cells assessed as growth inhibition at 10 uM after 24 hrs by MTT assay (reference value: 0 to 4.4%)", "type": "functional", "settings": "read-out: GI"}, "HeLa [11]": {"system": "HeLa", "assay": "Cytotoxicity against human HeLa cells assessed as growth inhibition at 2.5 uM after 24 hrs by MTT assay (reference value: 0 to 4.4%)", "type": "functional", "settings": "read-out: GI"}, "[12]": {"assay": "Cytotoxicity against human DU145 cells assessed as growth inhibition at 50 uM after 24 hrs by MTT assay (reference value: 1.2 to 7.8%)", "type": "functional", "settings": "DU-145, 24 h, read-out: GI"}, "MCF7 [13]": {"system": "MCF7", "assay": "Cytotoxicity against human MCF7 cells assessed as growth inhibition at 10 uM after 24 hrs by MTT assay (reference value: 2.7 to 9.3%)", "type": "functional", "settings": "MCF7, 24 h, read-out: GI"}, "HeLa [14]": {"system": "HeLa", "assay": "Cytotoxicity against human HeLa cells assessed as growth inhibition at 25 uM after 24 hrs by MTT assay (reference value: 0 to 4.4%)", "type": "functional", "settings": "read-out: GI"}, "MCF7 [15]": {"system": "MCF7", "assay": "Cytotoxicity against human MCF7 cells assessed as growth inhibition at 25 uM after 24 hrs by MTT assay (reference value: 2.7 to 9.3%)", "type": "functional", "settings": "MCF7, 24 h, read-out: GI"}, "MCF7 [16]": {"system": "MCF7", "assay": "Cytotoxicity against human MCF7 cells assessed as growth inhibition at 5 uM after 24 hrs by MTT assay (reference value: 2.7 to 9.3%)", "type": "functional", "settings": "MCF7, 24 h, read-out: GI"}, "HeLa [17]": {"system": "HeLa", "assay": "Cytotoxicity against human HeLa cells assessed as growth inhibition at 100 uM after 24 hrs by MTT assay (reference value: 0 to 4.4%)", "type": "functional", "settings": "read-out: GI"}, "[18]": {"assay": "Cytotoxicity against human DU145 cells assessed as growth inhibition at 5 uM after 24 hrs by MTT assay (reference value: 1.2 to 7.8%)", "type": "functional", "settings": "DU-145, 24 h, read-out: GI"}, "HeLa [19]": {"system": "HeLa", "assay": "Cytotoxicity against human HeLa cells assessed as growth inhibition at 50 uM after 24 hrs by MTT assay (reference value: 0 to 4.4%)", "type": "functional", "settings": "read-out: GI"}, "[20]": {"assay": "Cytotoxicity against human DU145 cells assessed as growth inhibition at 2.5 uM after 24 hrs by MTT assay (reference value: 1.2 to 7.8%)", "type": "functional", "settings": "DU-145, 24 h, read-out: GI"}, "HeLa [21]": {"system": "HeLa", "assay": "Cytotoxicity against human HeLa cells assessed as viable cells after 48 hrs by MTT assay", "type": "functional, cell-based"}, "HeLa [22]": {"system": "HeLa", "assay": "Cytotoxicity against human HeLa cells assessed as growth inhibition at 5 uM after 24 hrs by MTT assay (reference value: 0 to 4.4%)", "type": "functional", "settings": "read-out: GI"}, "[23]": {"assay": "Cytotoxicity against human DU145 cells assessed as growth inhibition at 10 uM after 24 hrs by MTT assay (reference value: 1.2 to 7.8%)", "type": "functional", "settings": "DU-145, 24 h, read-out: GI"}, "MCF7 [24]": {"system": "MCF7", "assay": "Cytotoxicity against human MCF7 cells assessed as viable cells after 24 hrs by MTT assay", "type": "functional, cell-based", "settings": "MCF7, 24 h"}, "HeLa [25]": {"system": "HeLa", "assay": "Cytotoxicity against human HeLa cells assessed as viable cells after 24 hrs by MTT assay", "type": "functional, cell-based"}, "HeLa [26]": {"system": "HeLa", "assay": "Cytotoxicity against human HeLa cells assessed as growth inhibition at 1.25 uM after 24 hrs by MTT assay (reference value: 0 to 4.4%)", "type": "functional", "settings": "read-out: GI"}, "[27]": {"assay": "Cytotoxicity against human DU145 cells assessed as growth inhibition at 1.25 uM after 24 hrs by MTT assay (reference value: 1.2 to 7.8%)", "type": "functional", "settings": "DU-145, 24 h, read-out: GI"}, "MCF7 [28]": {"system": "MCF7", "assay": "Cytotoxicity against human MCF7 cells assessed as growth inhibition at 100 uM after 24 hrs by MTT assay (reference value: 2.7 to 9.3%)", "type": "functional", "settings": "MCF7, 24 h, read-out: GI"}, "[29]": {"assay": "Cytotoxicity against human DU145 cells assessed as viable cells after 24 hrs by MTT assay", "type": "functional, cell-based", "settings": "DU-145, 24 h"}, "HeLa [30]": {"system": "HeLa", "assay": "Cytotoxicity against human HeLa cells assessed as growth inhibition at 5 uM after 48 hrs by MTT assay", "type": "functional", "settings": "read-out: GI"}, "HeLa [31]": {"system": "HeLa", "assay": "Cytotoxicity against human HeLa cells assessed as growth inhibition at 5 uM by MTT assay", "type": "functional, cell-based", "settings": "TDE = time-dependent effect"}}, "data": [{"smiles": "COc1c(Br)cc(C/C(=N\\O)C(=O)NCCCN(C)CCCCN(C)CCCNC(=O)/C(Cc2cc(Br)c(OC)c(Br)c2)=N/O)cc1Br", "values": [{"measurement": "IC50", "setting": "[1]", "result": 1600, "unit": "nM"}, {"measurement": "IC50", "setting": "MCF7 [2]", "result": 1600, "unit": "nM"}]}, {"smiles": "CO/N=C(\\Cc1cc(Br)c(OC)c(Br)c1)C(=O)NCCCNCCCCNCCCNC(=O)/C(Cc1cc(Br)c(OC)c(Br)c1)=N/OC", "values": [{"measurement": "inhibition of growth at 25 µM", "setting": "[3]", "result": 55, "unit": "%"}, {"measurement": "inhibition of growth at 2.5 µM", "setting": "MCF7 [4]", "result": 20.8, "unit": "%"}, {"measurement": "IC50", "setting": "MCF7 [5]", "result": 19.1, "unit": "µM"}, {"measurement": "inhibition of growth at 100 µM", "setting": "[6]", "result": 98.7, "unit": "%"}, {"measurement": "inhibition of growth at 50 µM", "setting": "MCF7 [7]", "result": 98.4, "unit": "%"}, {"measurement": "IC50", "setting": "[8]", "result": 27.7, "unit": "µM"}, {"measurement": "inhibition of growth at 1.25 µM", "setting": "MCF7 [9]", "result": 15.4, "unit": "%"}, {"measurement": "inhibition of growth at 10 µM", "setting": "HeLa [10]", "result": 20.2, "unit": "%"}, {"measurement": "inhibition of growth at 2.5 µM", "setting": "HeLa [11]", "result": 0, "unit": "%"}, {"measurement": "inhibition of growth at 50 µM", "setting": "[12]", "result": 99.2, "unit": "%"}, {"measurement": "inhibition of growth at 10 µM", "setting": "MCF7 [13]", "result": 33.1, "unit": "%"}, {"measurement": "inhibition of growth at 25 µM", "setting": "HeLa [14]", "result": 70.4, "unit": "%"}, {"measurement": "inhibition of growth at 25 µM", "setting": "MCF7 [15]", "result": 55.5, "unit": "%"}, {"measurement": "inhibition of growth at 5 µM", "setting": "MCF7 [16]", "result": 22.3, "unit": "%"}, {"measurement": "inhibition of growth at 100 µM", "setting": "HeLa [17]", "result": 97.4, "unit": "%"}, {"measurement": "inhibition of growth at 5 µM", "setting": "[18]", "result": 26.1, "unit": "%"}, {"measurement": "inhibition of growth at 50 µM", "setting": "HeLa [19]", "result": 97.8, "unit": "%"}, {"measurement": "inhibition of growth at 2.5 µM", "setting": "[20]", "result": 24.1, "unit": "%"}, {"measurement": "IC50", "setting": "HeLa [21]", "result": 25, "unit": "µM"}, {"measurement": "inhibition of growth at 5 µM", "setting": "HeLa [22]", "result": 0, "unit": "%"}, {"measurement": "inhibition of growth at 10 µM", "setting": "[23]", "result": 34.3, "unit": "%"}, {"measurement": "IC50", "setting": "MCF7 [24]", "result": 24.8, "unit": "µM"}, {"measurement": "IC50", "setting": "HeLa [25]", "result": 26.3, "unit": "µM"}, {"measurement": "inhibition of growth at 1.25 µM", "setting": "HeLa [26]", "result": 0, "unit": "%"}, {"measurement": "inhibition of growth at 1.25 µM", "setting": "[27]", "result": 24.6, "unit": "%"}, {"measurement": "inhibition of growth at 100 µM", "setting": "MCF7 [28]", "result": 98.1, "unit": "%"}, {"measurement": "IC50", "setting": "[29]", "result": 26.2, "unit": "µM"}]}, {"smiles": "COc1c(Br)cc(C/C(=N\\O)C(=O)NCCNCCNC(=O)/C(Cc2cc(Br)c(OC)c(Br)c2)=N/O)cc1Br", "values": [{"measurement": "IC50", "setting": "MCF7 [5]", "result": "> 100", "unit": "µM"}, {"measurement": "IC50", "setting": "[8]", "result": "> 100", "unit": "µM"}, {"measurement": "IC50", "setting": "HeLa [21]", "result": "> 100", "unit": "µM"}, {"measurement": "IC50", "setting": "MCF7 [24]", "result": "> 100", "unit": "µM"}, {"measurement": "IC50", "setting": "HeLa [25]", "result": "> 100", "unit": "µM"}, {"measurement": "IC50", "setting": "[29]", "result": "> 100", "unit": "µM"}]}, {"smiles": "COc1c(Br)cc(C/C(=N\\O)C(=O)NCCCCCNC(=O)/C(Cc2cc(Br)c(OC)c(Br)c2)=N/O)cc1Br", "values": [{"measurement": "IC50", "setting": "MCF7 [5]", "result": "> 100", "unit": "µM"}, {"measurement": "IC50", "setting": "[8]", "result": "> 100", "unit": "µM"}, {"measurement": "IC50", "setting": "HeLa [21]", "result": "> 100", "unit": "µM"}, {"measurement": "IC50", "setting": "MCF7 [24]", "result": "> 100", "unit": "µM"}, {"measurement": "IC50", "setting": "HeLa [25]", "result": "> 100", "unit": "µM"}, {"measurement": "IC50", "setting": "[29]", "result": "> 100", "unit": "µM"}]}, {"smiles": "COc1c(Br)cc(C/C(=N\\O)C(=O)NCCCNCCCCNCCCNC(=O)/C(Cc2cc(Br)c(OC)c(Br)c2)=N/O)cc1Br", "values": [{"measurement": "IC50", "setting": "MCF7 [5]", "result": "> 100", "unit": "µM"}, {"measurement": "IC50", "setting": "[8]", "result": "> 100", "unit": "µM"}, {"measurement": "inhibition of growth at 5 µM", "setting": "HeLa [30]", "result": 90, "unit": "%"}, {"measurement": "IC50", "setting": "HeLa [21]", "result": "> 100", "unit": "µM"}, {"measurement": "IC50", "setting": "MCF7 [24]", "result": "> 100", "unit": "µM"}, {"measurement": "growth inhibition (GI)", "setting": "HeLa [31]", "result": "tde"}, {"measurement": "IC50", "setting": "HeLa [25]", "result": "> 100", "unit": "µM"}, {"measurement": "IC50", "setting": "[29]", "result": "> 100", "unit": "µM"}]}]}
